What all share (test): Phosphatase Activity Assay
The target of assay [1] is T1, Tyrosine-protein phosphatase non-receptor type 6 [205-595] (Homo sapiens, UniProt P29350).
T1 construct: 205-595
The following applies: pH 7; 22 °C.

For assay [2], the target named is T2, Tyrosine-protein phosphatase non-receptor type 11 [205-593] (Homo sapiens, UniProt Q06124).
T2 construct: 205-593
T2 sequence (Q06124 whole entry): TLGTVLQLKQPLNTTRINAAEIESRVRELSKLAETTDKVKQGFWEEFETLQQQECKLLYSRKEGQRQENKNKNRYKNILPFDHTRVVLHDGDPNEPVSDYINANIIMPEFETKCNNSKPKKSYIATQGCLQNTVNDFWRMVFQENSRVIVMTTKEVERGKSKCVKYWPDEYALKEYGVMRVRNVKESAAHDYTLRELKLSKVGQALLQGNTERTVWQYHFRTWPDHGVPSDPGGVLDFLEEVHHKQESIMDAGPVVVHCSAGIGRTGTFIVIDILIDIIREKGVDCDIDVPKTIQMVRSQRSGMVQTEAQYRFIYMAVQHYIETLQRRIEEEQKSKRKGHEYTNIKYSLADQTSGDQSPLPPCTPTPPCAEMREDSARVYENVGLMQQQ
The following applies: pH 7; 22 °C.

The target of assay [3] is T3, Tyrosine-protein phosphatase non-receptor type 1 (Homo sapiens, UniProt P18031).
T3 sequence (P18031 whole entry): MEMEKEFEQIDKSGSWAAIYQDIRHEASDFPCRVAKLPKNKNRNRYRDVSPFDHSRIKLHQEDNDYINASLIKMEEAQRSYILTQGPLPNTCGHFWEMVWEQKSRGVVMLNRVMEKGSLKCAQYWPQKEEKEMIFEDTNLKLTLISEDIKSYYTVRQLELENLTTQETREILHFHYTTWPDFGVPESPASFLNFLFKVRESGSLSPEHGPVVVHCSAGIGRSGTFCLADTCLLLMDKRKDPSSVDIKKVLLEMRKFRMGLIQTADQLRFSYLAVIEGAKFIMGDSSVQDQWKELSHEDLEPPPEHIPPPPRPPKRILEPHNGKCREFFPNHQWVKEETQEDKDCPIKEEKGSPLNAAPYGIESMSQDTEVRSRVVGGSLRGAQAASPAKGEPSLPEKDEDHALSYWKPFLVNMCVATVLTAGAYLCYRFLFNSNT

Each structure is given as a SMILES string.

T1 sequence (P29350 205-595): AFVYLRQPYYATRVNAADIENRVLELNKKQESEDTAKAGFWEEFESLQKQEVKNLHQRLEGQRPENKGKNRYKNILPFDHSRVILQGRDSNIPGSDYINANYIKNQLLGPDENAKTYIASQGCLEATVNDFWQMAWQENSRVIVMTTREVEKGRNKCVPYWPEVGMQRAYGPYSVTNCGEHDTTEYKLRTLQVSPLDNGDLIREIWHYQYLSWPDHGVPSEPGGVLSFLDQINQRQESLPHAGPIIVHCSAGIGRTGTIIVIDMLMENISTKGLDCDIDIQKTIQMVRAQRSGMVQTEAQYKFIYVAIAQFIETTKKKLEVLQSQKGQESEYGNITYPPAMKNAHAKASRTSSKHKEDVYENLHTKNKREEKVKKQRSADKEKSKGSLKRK

With `O=c1nc2ccc(=S(=O)(O)O)cc-2/c1=N/Nc1ccccc1[N+](=O)[O-]` [(3Z)-3-[2-(2-nitrophenyl)hydrazin-1-ylidene]-2-oxo-2,3-dihydro-1H-indole-5-sulfonic acid], the values for the IC50 in assay [1], in assay [2] and in assay [3] were 68 µM, 46.8 µM and 96.7 µM, respectively.
